From ChEMBL document CHEMBL4152309, “N-phenylsulfonyl-3,5-bis(arylidene)-4-piperidone derivatives as activation NF-κB inhibitors in hepatic carcinoma cell lines” (Eur J Med Chem, 2018)
The source made the active and inactive calls. The calls are words filed in the database; no cut-off is given here.

Assays:
[1] = Cytotoxicity against human HHL5 cells assessed as reduction in cell viability after 24 hrs by MTT assay; format: cell-based; details: HHL-5, 24 h
[2] = tested on: SMMC-7721; assay: Cytotoxicity against human SMMC7721 cells assessed as reduction in cell viability after 24 hrs by MTT assay; format: functional, cell-based; details: for IC50: SMMC-7721, 24 h
[3] = tested on: QGY-7703; assay: Cytotoxicity against human QGY7703 cells assessed as reduction in cell viability after 24 hrs by MTT assay; format: functional, cell-based; details: for IC50: QGY-7703, 24 h
[4] = Cytotoxicity against mouse RAW264.7 cells assessed as cell viability at 10 uM after 24 hrs by MTT assay relative to control; format: cell-based; details: read-out: Activity
[5] = tested on: L02; assay: Cytotoxicity against human LO2 cells assessed as reduction in cell viability after 24 hrs by MTT assay; format: cell-based; details: L02, 24 h
[6] = tested on: HepG2; assay: Cytotoxicity against human HepG2 cells assessed as reduction in cell viability after 24 hrs by MTT assay; format: functional, cell-based; details: for IC50: HepG2, 24 h
[7] = tested on: RAW264.7; assay: Anti-inflammatory activity in mouse RAW264.7 cells assessed as inhibition of LPS-induced IL-6 secretion at 10 uM pretreated for 2 hrs followed by LPS stimulation and measured after 22 hrs by ELISA; format: functional, cell-based
[8] = tested on: RAW264.7; assay: Anti-inflammatory activity in mouse RAW264.7 cells assessed as inhibition of LPS-induced TNFalpha secretion at 10 uM pretreated for 2 hrs followed by LPS stimulation and measured after 22 hrs by ELISA; format: functional, cell-based
[9] = tested on: RAW264.7; assay: Anti-inflammatory activity in mouse RAW264.7 cells assessed as inhibition of LPS-induced TNFalpha secretion at 30 uM pretreated for 2 hrs followed by LPS stimulation and measured after 22 hrs by ELISA; format: functional, cell-based
[10] = tested on: RAW264.7; assay: Anti-inflammatory activity in mouse RAW264.7 cells assessed as inhibition of LPS-induced IL-6 secretion at 30 uM pretreated for 2 hrs followed by LPS stimulation and measured after 22 hrs by ELISA; format: functional, cell-based

SMILES | IC50 [1] [µM] | IC50 [2] [µM] | IC50 [3] [µM] | viability at 24 h, 10 µM [4] [%] | IC50 [5] [µM] | IC50 [6] [µM] | Activity [2] | Activity [3] | Activity [6] | inhibition [7] | inhibition [8] | inhibition [9] | inhibition [10]
O=C1/C(=C/c2cccc([N+](=O)[O-])c2)CN(S(=O)(=O)c2ccc(F)cc2)C/C1=C\c1ccccc1F | 17.8 | 7.82 | 14.9 | > 80 | 17 | 7.04 |  |  |  |  |  |  | 
COc1cc(/C=C/C(=O)CC(=O)/C=C/c2ccc(O)c(OC)c2)ccc1O [CURCUMIN] | 22.3 | 19.5 | 21.4 |  | 23.9 | 16 |  |  |  |  |  |  | 
CC(=O)Nc1ccc(S(=O)(=O)N2C/C(=C\c3ccc(C#N)cc3)C(=O)/C(=C/c3ccc(C#N)cc3)C2)cc1 | 11.9 | 7.12 | 3.32 | > 80 | 14 | 4.88 |  |  |  |  |  |  | 
COc1cccc2c1C(=O)c1c(O)c3c(c(O)c1C2=O)C[C@@](O)(C(=O)CO)C[C@@H]3O[C@H]1C[C@H](N)[C@H](O)[C@H](C)O1 [DOXORUBICIN] | 9.27 | 1.47 | 1.44 |  | 7.87 | 1.01 | Dose-dependent effect | Dose-dependent effect | Dose-dependent effect |  |  |  | 
COc1cc(/C=C2\CN(S(=O)(=O)c3ccc(F)cc3)C/C(=C\c3cc(OC)c(OC)c(OC)c3)C2=O)cc(OC)c1OC | 11 | 3.84 | 2.22 | > 80 | 12.1 | 4.2 |  |  |  |  |  |  | 
O=C1/C(=C/c2cccc([N+](=O)[O-])c2)CN(S(=O)(=O)c2ccc(F)cc2)C/C1=C\c1cccc([N+](=O)[O-])c1 | 11.2 | 3.98 | 11.9 | > 80 | 15.5 | 8.76 |  |  |  |  |  |  | 
COc1cc(/C=C2\CN(S(=O)(=O)c3ccc(F)cc3)C/C(=C\c3ccccc3F)C2=O)cc(OC)c1 | 16 | 6.89 | 14 | > 80 | 18.4 | 9.3 |  |  |  |  |  |  | 
CC(=O)Nc1ccc(S(=O)(=O)N2C/C(=C\c3cccc([N+](=O)[O-])c3)C(=O)/C(=C/c3ccccc3F)C2)cc1 | 20 | 10.2 | 7.85 | > 80 | 18.4 | 8.8 |  |  |  | Active |  |  | 
O=C1/C(=C/c2ccccc2F)CN(S(=O)(=O)c2ccc(F)cc2)C/C1=C\c1ccccc1F | 13.4 | 8.37 | 8.5 | > 80 | 19.1 | 7.22 |  |  |  |  |  |  | 
COc1cc(/C=C2\CN(S(=O)(=O)c3ccc(F)cc3)C/C(=C\c3cc(OC)cc(OC)c3)C2=O)cc(OC)c1 | 14.4 | 8.21 | 11.4 | > 80 | 19.8 | 8.1 |  |  |  |  |  |  | 
COc1cc(/C=C2\CN(S(=O)(=O)c3ccc(NC(C)=O)cc3)C/C(=C\c3ccccc3F)C2=O)cc(OC)c1OC | 12.2 | 3.92 | 2.68 | > 80 | 14 | 4.75 |  |  |  |  |  |  | 
COc1cc(/C=C2\CN(S(=O)(=O)c3ccc(NC(C)=O)cc3)C/C(=C\c3cc(OC)c(OC)c(OC)c3)C2=O)cc(OC)c1OC | 13.8 | 3.47 | 1.9 | > 80 | 13.6 | 3.89 |  |  |  |  |  |  | 
COc1cc(/C=C2\CN(S(=O)(=O)c3ccc(NC(C)=O)cc3)C/C(=C\c3cc(OC)c(OC)c(OC)c3)C2=O)cc(OC)c1 | 13.5 | 4.2 | 2.02 | > 80 | 15.9 | 4.14 |  |  |  |  |  |  | 
N#Cc1ccc(/C=C2\CN(S(=O)(=O)c3ccc(F)cc3)C/C(=C\c3ccc(C#N)cc3)C2=O)cc1 | 19.2 | 20.1 | 11.3 | > 80 | 18.9 | 11.5 |  |  |  |  | Active |  | 
CC(=O)Nc1ccc(S(=O)(=O)N2C/C(=C\c3ccc(C#N)cc3)C(=O)/C(=C/c3ccccc3F)C2)cc1 | 11.3 | 3.15 | 2.05 | > 80 | 14.4 | 4.96 |  |  |  |  |  |  | 
CC(=O)Nc1ccc(S(=O)(=O)N2C/C(=C\c3cccc([N+](=O)[O-])c3)C(=O)/C(=C/c3cccc([N+](=O)[O-])c3)C2)cc1 | 17.8 | 8.42 | 6.76 | > 80 | 15.8 | 7.14 |  |  |  |  |  |  | 
N#Cc1ccc(/C=C2\CN(S(=O)(=O)c3ccc(F)cc3)C/C(=C\c3ccccc3F)C2=O)cc1 | 19 | 10.2 | 20.1 | > 80 | 21.9 | 8.18 |  |  |  |  | Active |  | 
COc1cc(/C=C2\CN(S(=O)(=O)c3ccc(F)cc3)C/C(=C\c3cccc([N+](=O)[O-])c3)C2=O)cc(OC)c1OC | 11.1 | 4.9 | 3.27 | > 80 | 18.8 | 3.25 |  |  |  |  |  |  | 
S=C(S)N1CCCC1 |  |  |  |  |  |  |  |  |  |  |  | Active | Active
COc1cc(/C=C2\CN(S(=O)(=O)c3ccc(F)cc3)C/C(=C\c3ccccc3F)C2=O)cc(OC)c1OC | 15.9 | 6.34 | 13.3 | > 80 | 17.6 | 7.94 |  |  |  | Active |  |  | 
COc1cc(/C=C2\CN(S(=O)(=O)c3ccc(F)cc3)C/C(=C\c3cc(OC)c(OC)c(OC)c3)C2=O)cc(OC)c1 | 11.3 | 5.42 | 5.2 | > 80 | 12.3 | 3.89 |  |  |  |  | Active |  | 
COc1cc(/C=C2\CN(S(=O)(=O)c3ccc(NC(C)=O)cc3)C/C(=C\c3cc(OC)cc(OC)c3)C2=O)cc(OC)c1 | 18.1 | 6.84 | 11.3 | > 80 | 18.7 | 7.54 |  |  |  |  |  |  | 
COc1cc(/C=C2\CN(S(=O)(=O)c3ccc(NC(C)=O)cc3)C/C(=C\c3ccccc3F)C2=O)cc(OC)c1 | 15.3 | 5.21 | 3.69 | > 80 | 15.4 | 6.8 |  |  |  |  |  |  | 
CC(=O)Nc1ccc(S(=O)(=O)N2C/C(=C\c3ccccc3F)C(=O)/C(=C/c3ccccc3F)C2)cc1 | 13.3 | 7.49 | 5.5 | > 80 | 11.6 | 5.84 |  |  |  |  |  |  | 
COc1cc(/C=C2\CN(S(=O)(=O)c3ccc(NC(C)=O)cc3)C/C(=C\c3cccc([N+](=O)[O-])c3)C2=O)cc(OC)c1OC | 14.2 | 1.95 | 2.55 | > 80 | 15.6 | 3.34 |  |  |  |  |  |  | 
COc1cc(/C=C2\CN(S(=O)(=O)c3ccc(F)cc3)C/C(=C\c3ccc(C#N)cc3)C2=O)cc(OC)c1OC | 12.9 | 4.12 | 4.98 | > 80 | 12.9 | 4.95 |  |  |  |  |  |  | 
